Test results as given in patent publication US20120071539A1, “COMPOUNDS AND METHODS FOR MODULATING THE SILENCING OF A POLYNUCLEOTIDE OF INTEREST” (Emory University, priority 2006, published 2012).
Values joined by “and” are separate entries in the source; they are usually repeats but may differ in a detail not shown here. Equal values may be shown once. “Also recorded” adds a separate entry of the source.

Tests used:
tumor cell models = conditions: cited from earlier work
bladder cancer cells = conditions: cited from earlier work
RNAi-293-EGFP/RFP cells = assay: dose-response of GFP/RFP signal ratio in RNAi-293-EGFP/RFP cells; format: cell-based; conditions: at 5 μM; 48 hours; versus Enoxacin 50 μM and 100 μM
Method: FIGS. 11A-11D show drug dose-responses for representative metal/Fe chelators. RNAi-293-EGFP/RFP cells were treated with each compound for 48 hours and the GFP/RFP signal ratio was plotted for relative RNAi-enhancing activity (%) using E50 (Enoxacin at 50 μM) as 100% activity.
An additional chemical library screen was performed to identify enhancers and suppressors of RNAi activity. In this screen, RNAi-293-EGFP cells were treated with compounds from a chemical library and endogenous RNAi activity was measured by GFP readout. Four particular compounds were identified in this screen. Further, all four compounds identified in this screen have metal/Fe chelating ability.
These four compounds were further tested by obtaining a drug dose-response curve for each compound at a wide range of concentrations in RNAi-293-EGFP/RFP. After 48 hours, GFP signals were measured by SpectraMax M2^e (Molecular Devices Corporation, Sunnyvale, Calif.). The GFP signals were then normalized over RFP signals to account for variability of cell numbers among wells and then plotted for relative RNAi-enhancing activity, which is set to 100% for a known RNAi-enhancing small molecule, e.g., Enoxacin at 50 μM.

[1] = test system: siRNA-mediated mRNA degradation; assay: cell-based reporter screen: human 293 cells stably expressing GFP plus siRNA hairpin against GFP; conditions: pilot screen of The Spectrum Collection; FIG. 3, FIG. 4
Method: FIG. 2 discloses one embodiment of the cell-based reporter system of the invention. In this example, a human 293-cell line stably expressing a reporter gene, GFP, was used. This cell line was further transfected with a construct that expresses siRNA hairpin against GFP, which can decrease the level of GFP expression. Individual clones were isolated with greatly (although not completely) reduced GFP expression.
Using the above-identified clones, a screen was performed using The Spectrum Collection (MicroSource Discovery Systems, Inc., Gaylordsville, Conn., United States of America), which contains 2000 biologically active and structurally diverse compounds from libraries of known drugs, experimental bioactives, and pure natural products. For example, in one embodiment, a pilot screen of this library identified one inhibitor and one enhancer of siRNA-mediated mRNA degradation.
To identify the chemical compounds that modulate the siRNA and miRNA pathway, a screening strategy was used. A human 293-cell line stably expressing a reporter gene, GFP, was used. This cell line was further transfected with a construct that expresses siRNA hairpin against GFP, which could knock down the expression of GFP. […] Using these clones, a screen was performed using The Spectrum Collection, which contains 2000 biologically active and structurally diverse compounds from libraries of known drugs, experimental bioactives, and pure natural products.
Human 293 cells stably expressing a reporter gene, GFP, were further transfected with a construct that expresses an siRNA hairpin against GFP, which results in the knock-down of the expression of GFP. Transfected cells containing the siRNA suppressed GPF expression were split and then treated with an effective amount of enoxacin (FIG. 4, second panel) and were grown for a period of 24-48 hours.

[2] = test system: Clone#3, 293-EGFP-siGFP cells; assay: plate-reader chemical library screen, GFP signal in Clone#3 cells; format: cell-based, human; conditions: 50 mM RNAi-E alone
Excerpt: Further, in some embodiments, additional screens using the same library can be performed to identify other modulators of the siRNA and the miRNA pathways. In some embodiments, instead of examining the GFP signal visually under a microscope, the GFP signal can be quantified using an automatic plate reader. In such embodiments, two additional rounds of screening can be performed. In the first round of screening, the clones can be treated with compounds from a library, e.g., The Spectrum Collection, alone and the GFP level can be quantified after a period of time, e.g., 48 hours. In the second round of screening, the clones can be treated with compounds from a library, e.g., The Spectrum Collection, in the presence of 50 μM RNAi-E, i.e., enoxacin. This assay enables compounds that can modulate the activity of RNAi-E to be identified.
(§1) The presently disclosed chemical library also was screened using a plate reader to quantify the GFP signal intensity. The following screens were conducted: (1) repeating chemical screen using plate reader to quantify the GFP signal (50 mM each drug); (2) treating cells with 50 mM RNAi-I (30 mM each additional drug); and treating cells with […] (30 mM each additional drug).
(§2) For each screen, two types of cells were used: Clone#3 and EGFP. Clone#3 cells are 293-EGFP-siGFP and could be used to identify the modulators of the RNAi pathway. EGFP cells are 293-EGFP only and were used as a control to eliminate the compounds that could kill the cells or interfere GFP signals that are not related to RNAi pathway. The results for each screen are summarized in Table 2 and Table 3, respectively.
(§3) In these three screens, compounds were identified that could either enhance or inhibit RNAi activity in Clone#3, but had no effect on EGFP cells, which would indicate that these compounds might specifically work on RNAi pathway. The modulation of RNAi activity by these compounds was calculated as the percentage of GFP signal to Clone#3 control cells.

EGFP, 293-EGFP cells = assay: plate-reader chemical library screen, GFP signal in control EGFP cells; format: cell-based, human; conditions: GFP signal; 50 mM RNAi-E
Method: as §1, §2, §3

[3] = test system: shRNA against Luciferase mRNA; assay: GL-3 luciferase reporter in cells expressing shRNA against luciferase; format: cell-based; conditions: FIG. 5
Excerpt: In this example, a luciferase reporter construct GL-3 was transfected into the cells expressing shRNA against Luciferase mRNA.

miR-30a-3p = assay: miRNA sensor Luc-T30 dual luciferase assay; format: cell-based; conditions: endogenously expressed miR-30; FIG. 6, FIG. 7
Excerpt: (A) Design of a siRNA duplex against miR-30a precursor (siRNA-p) and a control siRNA duplex (siRNA-c). The miR-30a precursor is provided as SEQ ID NO:1. The siRNA target region is represented by nucleotides 21-40 of SEQ ID NO:1. The siRNA-p is provided as SEQ ID NO:2 and the siRNA-c is provided as SEQ ID NO:3. The double stranded siRNA is shown on the bottom and predicted pairing between one siRNA strand (blue) and the precursor target (green).
In FIG. 6, top left panel, the blue arrowheads in Luc-T30 indicate artificial target sequence against miR-30a-3p. Luc-AT30 has an artificial sequence complementary to that in Luc-T30. […] Relative luciferase activity was calculated by dividing the reporter (Firefly) luciferase activity with co-transfected Renilla luciferase activity. Luciferase activity was decreased by transfecting Luc-T30 in HepG2 (orange bars) without changes in the amount of its mRNA (blue bars). Error bars represent the standard deviation (SD) of three triplicate experiments. […] Error bars represent the standard deviation (SD) from three triplicate experiments. **P=0.004; *****P=0.00001.
This reporter contains the target sequence of miR-30. In the miR-30 system, the endogenously expressed miR-30 was used and, in this cell line, miR-30 has been processed completely. Thus, the addition of enoxacin had no effect.

miR-125a = assay: Lin28 3'-UTR luciferase reporter in cells expressing miR-125a; format: cell-based
Excerpt: Referring now to FIG. 8, the 3′-UTR of Lin28 mRNA, a target mRNA of miR-125a, was inserted into the 3′ end of luciferase reporter gene. Lin28-Del is the construct without the target sequence of miR-125a. Lin28 or Lin28-Del was transfected into cells expressing miR-125a. Although RNAi-E had no effect on Lin28-Del, the translation of Lin28 was suppressed by the expression of miR-125a.

## c1ccc(CNC2CC(NCc3ccccn3)CC(NCc3ccccn3)C2)nc1 (centres unmarked) [Tachpyridine, tachpyridine]
Tumor cell models
  anti-proliferative activity: anti-proliferative activity
Bladder cancer cells
  ferritin synthesis: inhibit
  proliferation of bladder cancer cells in culture: inhibit

## O=C(N/N=C/c1c(O)ccc2ccccc12)c1ccncc1 [compound 311, 2-hydroxy-1-naphthylaldehyde isonicotinoyl hydrazone]
RNAi-293-EGFP/RFP cells
  RNAi-enhancing activity relative to Enoxacin: more effective than Enoxacin
Tumor cell models
  anti-proliferative activity: anti-proliferative activity; also recorded: anti-proliferation activity

## CCn1cc(C(=O)O)c(=O)c2cc(F)c(N3CCNCC3)nc21 [enoxacin]
[1]
  siRNA-mediated mRNA degradation and gene knock-down: enhance siRNA-mediated mRNA degradation and gene knock-down
[2]
  Clone#3, 293-EGFP-siGFP cells GFP signal intensity with RNAi-E: 20289248 and 16615771 and 18695953 and 20015152
EGFP, 293-EGFP cells
  EGFP, 293-EGFP cells RNAi-E alone: 177574932 and 1.78E+08 and 229622488 and 212666320 and 2.13E+08 and 138649048
[3]
  knock-down efficiency of shRNA against luciferase mRNA: increased the knock-down efficiency
miR-30a-3p
  miRNA-mediated translational suppression of Luc-T30 reporter: no effect
miR-125a; Lin28 construct, FIG. 8
  suppression of the translation of Lin28 by miR-125a: further enhanced this suppression
miR-125a; construct without the target sequence of miR-125a
  effect on Lin28-Del: no effect

## siRNA-c: control siRNA duplex, SEQ ID NO:3 (UGGUAGCAGUCAUGGCACATT; chemistry not given here)
miR-30a-3p
  miRNA-mediated translational suppression of Luc-T30 reporter: no effect

## siRNA-p: siRNA duplex against miR-30a precursor, SEQ ID NO:2 (UGGAAGCUGUGAAGCCACATT; chemistry not given here)
miR-30a-3p
  miRNA-mediated translational suppression of Luc-T30 reporter: reversed the translational suppression
